The values below come from paper PMC7718890 (Scientific Reports, 2020).

Data set [1] concerns the target CarD·RNAP binding (CarD association with RPo).
Data set [2] is described as follows: Turbidity test (OD620) for aggregation. The data set is classed as physicochemical.
For another data set, the system named is RNAP. Particulars: cited from earlier work.

As a reminder, the IC50 is the point on the concentration scale where inhibition reaches its midpoint.

Values joined by “and” are separate entries in the source; they are usually repeats but may differ in a detail not shown here. Equal values may be shown once. Read-outs that look alike come from different tables or passages of the source.

Chain of CarD·RNAP binding (CarD association with RPo) (P9WGY5 whole entry): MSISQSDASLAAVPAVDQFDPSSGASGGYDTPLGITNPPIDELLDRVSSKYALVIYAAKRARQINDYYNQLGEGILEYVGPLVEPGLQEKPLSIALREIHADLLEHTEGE
Chain of CarD·RNAP binding (CarD association with RPo) (P9WGI1 whole entry, further chain): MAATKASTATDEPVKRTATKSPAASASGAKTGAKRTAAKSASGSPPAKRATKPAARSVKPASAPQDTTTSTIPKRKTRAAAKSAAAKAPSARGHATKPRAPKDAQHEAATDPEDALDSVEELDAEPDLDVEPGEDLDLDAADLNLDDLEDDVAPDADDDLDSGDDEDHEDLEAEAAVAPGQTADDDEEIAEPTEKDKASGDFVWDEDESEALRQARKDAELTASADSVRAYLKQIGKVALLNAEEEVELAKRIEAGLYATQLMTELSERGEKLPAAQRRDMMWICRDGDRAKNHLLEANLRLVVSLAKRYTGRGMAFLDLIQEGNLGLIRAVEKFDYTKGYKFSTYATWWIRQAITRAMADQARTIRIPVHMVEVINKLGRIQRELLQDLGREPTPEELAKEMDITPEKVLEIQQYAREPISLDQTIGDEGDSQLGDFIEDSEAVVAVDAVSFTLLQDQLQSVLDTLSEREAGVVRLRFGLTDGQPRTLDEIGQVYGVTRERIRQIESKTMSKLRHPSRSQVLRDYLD
Chain of CarD·RNAP binding (CarD association with RPo) (P9WGY7 whole entry, further chain): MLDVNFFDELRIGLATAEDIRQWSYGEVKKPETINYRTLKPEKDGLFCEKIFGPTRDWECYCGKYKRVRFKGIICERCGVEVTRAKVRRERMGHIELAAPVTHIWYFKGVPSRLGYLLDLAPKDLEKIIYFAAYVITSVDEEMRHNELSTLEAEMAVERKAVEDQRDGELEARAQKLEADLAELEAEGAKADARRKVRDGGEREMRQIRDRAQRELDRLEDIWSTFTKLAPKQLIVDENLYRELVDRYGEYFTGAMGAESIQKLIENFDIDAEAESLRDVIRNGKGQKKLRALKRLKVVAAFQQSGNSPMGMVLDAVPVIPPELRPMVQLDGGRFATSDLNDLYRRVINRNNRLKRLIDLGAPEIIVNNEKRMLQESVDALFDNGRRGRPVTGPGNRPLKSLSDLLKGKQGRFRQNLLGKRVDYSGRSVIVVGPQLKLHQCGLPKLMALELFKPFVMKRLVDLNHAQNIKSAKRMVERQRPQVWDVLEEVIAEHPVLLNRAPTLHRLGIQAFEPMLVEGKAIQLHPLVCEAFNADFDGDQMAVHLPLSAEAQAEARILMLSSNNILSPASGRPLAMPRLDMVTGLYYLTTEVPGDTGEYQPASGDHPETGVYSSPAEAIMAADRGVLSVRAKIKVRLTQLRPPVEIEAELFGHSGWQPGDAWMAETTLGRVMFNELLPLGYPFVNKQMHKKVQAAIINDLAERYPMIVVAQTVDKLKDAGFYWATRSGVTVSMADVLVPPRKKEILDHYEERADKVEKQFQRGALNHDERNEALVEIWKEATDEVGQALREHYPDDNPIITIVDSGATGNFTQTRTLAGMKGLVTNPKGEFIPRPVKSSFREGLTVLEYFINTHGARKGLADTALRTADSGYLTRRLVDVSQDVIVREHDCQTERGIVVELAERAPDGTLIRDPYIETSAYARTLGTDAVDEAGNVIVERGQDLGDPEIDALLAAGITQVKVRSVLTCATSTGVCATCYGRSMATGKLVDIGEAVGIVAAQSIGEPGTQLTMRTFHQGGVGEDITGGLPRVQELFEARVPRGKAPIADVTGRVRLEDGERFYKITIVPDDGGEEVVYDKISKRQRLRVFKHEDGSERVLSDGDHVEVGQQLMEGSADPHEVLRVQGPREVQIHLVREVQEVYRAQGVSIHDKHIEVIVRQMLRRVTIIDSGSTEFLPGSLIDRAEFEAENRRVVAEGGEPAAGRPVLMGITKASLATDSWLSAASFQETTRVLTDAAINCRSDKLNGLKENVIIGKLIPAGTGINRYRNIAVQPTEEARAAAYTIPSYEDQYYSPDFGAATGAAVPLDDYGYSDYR
Chain of CarD·RNAP binding (CarD association with RPo) (P9WGY9 whole entry, further chain): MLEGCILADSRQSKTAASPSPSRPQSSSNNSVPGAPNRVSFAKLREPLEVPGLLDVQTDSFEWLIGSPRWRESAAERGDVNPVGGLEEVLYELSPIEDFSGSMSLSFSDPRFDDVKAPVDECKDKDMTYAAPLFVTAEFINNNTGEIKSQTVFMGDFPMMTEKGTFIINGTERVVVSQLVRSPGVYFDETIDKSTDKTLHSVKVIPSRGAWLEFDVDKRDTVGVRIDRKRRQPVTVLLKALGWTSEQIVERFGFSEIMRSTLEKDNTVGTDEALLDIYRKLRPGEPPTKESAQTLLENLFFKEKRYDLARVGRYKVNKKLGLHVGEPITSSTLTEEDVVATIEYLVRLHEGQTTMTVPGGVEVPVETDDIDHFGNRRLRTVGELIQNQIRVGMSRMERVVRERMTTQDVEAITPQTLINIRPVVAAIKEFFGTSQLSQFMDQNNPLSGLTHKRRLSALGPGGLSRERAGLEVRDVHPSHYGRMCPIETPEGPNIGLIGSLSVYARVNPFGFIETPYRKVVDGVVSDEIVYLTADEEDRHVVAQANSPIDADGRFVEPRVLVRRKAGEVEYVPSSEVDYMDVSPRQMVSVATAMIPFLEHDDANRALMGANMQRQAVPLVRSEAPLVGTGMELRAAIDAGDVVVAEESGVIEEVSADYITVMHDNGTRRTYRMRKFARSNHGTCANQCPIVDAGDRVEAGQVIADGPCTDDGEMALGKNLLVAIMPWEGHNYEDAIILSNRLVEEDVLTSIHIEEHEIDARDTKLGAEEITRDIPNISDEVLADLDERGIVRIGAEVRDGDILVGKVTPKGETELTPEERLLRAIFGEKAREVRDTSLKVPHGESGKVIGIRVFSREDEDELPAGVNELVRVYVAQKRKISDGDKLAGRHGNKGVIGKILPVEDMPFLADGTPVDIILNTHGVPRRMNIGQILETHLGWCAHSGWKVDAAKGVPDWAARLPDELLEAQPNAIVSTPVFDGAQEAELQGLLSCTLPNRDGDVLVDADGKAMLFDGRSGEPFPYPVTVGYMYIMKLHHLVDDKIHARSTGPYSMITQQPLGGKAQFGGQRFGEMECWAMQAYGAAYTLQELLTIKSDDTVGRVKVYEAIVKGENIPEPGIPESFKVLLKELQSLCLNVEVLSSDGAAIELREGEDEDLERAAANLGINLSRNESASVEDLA
Chain of CarD·RNAP binding (CarD association with RPo) (P9WGZ1 whole entry, further chain): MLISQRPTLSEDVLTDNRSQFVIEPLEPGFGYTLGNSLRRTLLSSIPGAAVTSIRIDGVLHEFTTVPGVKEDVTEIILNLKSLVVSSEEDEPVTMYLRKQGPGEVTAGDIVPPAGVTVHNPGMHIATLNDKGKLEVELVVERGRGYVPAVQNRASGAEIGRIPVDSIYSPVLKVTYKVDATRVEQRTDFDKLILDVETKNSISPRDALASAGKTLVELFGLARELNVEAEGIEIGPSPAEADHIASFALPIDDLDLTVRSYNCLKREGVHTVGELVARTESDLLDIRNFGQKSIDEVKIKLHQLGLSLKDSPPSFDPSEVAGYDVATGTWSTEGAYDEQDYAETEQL

`Cc1cc2c(NC(=O)Nc3ccccc3)cccc2nn1` [CCG-237488]: in data set [1], the IC50 was determined as 20 µM.
With `O=C(O)c1ccc(-c2nc3ccc(-c4ccc5nc(-c6ccc(C(=O)O)cc6)[nH]c5c4)cc3[nH]2)cc1` [CCG-249580], in data set [1], the IC50 is 32 µM and 45 µM. In addition, the “Concentration above which compound is prone to aggregation (turbidity curve)” value in data set [2] is “higher than 34 µM”.
As for `CCc1c(Cl)c(O)c(Cl)c(O)c1C(=O)O[C@H]1[C@H](O)[C@H](OC)[C@H](OC/C2=C\C=C\C[C@H](O)/C(C)=C/[C@H](CC)[C@@H](O[C@@H]3OC(C)(C)[C@@H](OC(=O)C(C)C)[C@H](O)[C@@H]3O)/C(C)=C/C(C)=C/C[C@@H]([C@@H](C)O)OC2=O)O[C@@H]1C` [Fidaxomicin], the IC50 in the data set with RNAP (read-out: IC50 In Vitro Transcription +RbpA) was 0.21 µM; in the data set on RNAP (read-out: IC50 In Vitro Transcription -RbpA), 7 µM.
